The results in this text go back to PubChem BioAssay (NCI).

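Compound exposure: 48 hours, 5 concentrations, 96-well plates. TGI: concentration producing complete growth inhibition.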

Test systems include DU-145 prostate; MDA-MB-231 breast; SK-MEL-28 melanoma; UO-31 renal; SK-MEL-2 melanoma; COLO 205 colon; UACC-257 melanoma; OVCAR-8 ovarian; RPMI-8226 leukemia; SF-295 CNS; NCI-H460 lung; MALME-3M melanoma; KM12 colon; UACC-62 melanoma; SW-620 colon; NCI/ADR-RES ovarian; IGROV1 ovarian; SK-OV-3 ovarian; LOX IMVI melanoma; HT29 colon.
Holding throughout (assay): NCI-60 cell line screen, 48 h

`CC(C)CNC(=O)c1c(NC(=O)c2ccccc2)sc2[nH]c(=O)n(-c3ccccc3)c(=O)c12`: the TGI with DU-145 prostate was more than 100 µM; in the experiment with MDA-MB-231 breast, 52.6 µM; in the experiment on SK-MEL-28 melanoma it was more than 100 µM; in the experiment with UO-31 renal, more than 100 µM; in the experiment on SK-MEL-2 melanoma, 68.6 µM; with COLO 205 colon it was more than 100 µM. Also, the TGI in the experiment with UACC-257 melanoma is more than 100 µM; with OVCAR-8 ovarian, more than 100 µM; in the experiment with RPMI-8226 leukemia it was more than 100 µM; in the experiment on SF-295 CNS, 67.1 µM; in the experiment on NCI-H460 lung, more than 100 µM; in the experiment with MALME-3M melanoma it was more than 100 µM. The TGI was more than 100 µM in the experiment on KM12 colon; more than 100 µM in the experiment on UACC-62 melanoma; more than 100 µM with SW-620 colon; more than 100 µM in the experiment on NCI/ADR-RES ovarian; more than 100 µM in the experiment with IGROV1 ovarian; more than 81.2 µM in the experiment on SK-OV-3 ovarian. Moreover, the TGI with LOX IMVI melanoma and in the experiment on HT29 colon was more than 100 µM throughout.

Turning to `[O-]/N=N\c1on[n+](CCc2ccccc2)c1Cc1c(/N=N/[O-])on[n+]1CCc1ccccc1`, the TGI is more than 100 µM with DU-145 prostate; 88.6 µM in the experiment on MDA-MB-231 breast; more than 100 µM in the experiment with SK-MEL-28 melanoma; more than 100 µM in the experiment with UO-31 renal; 94 µM in the experiment on SK-MEL-2 melanoma; more than 100 µM with COLO 205 colon. The TGI was more than 100 µM in the experiment on UACC-257 melanoma; 46.4 µM in the experiment on OVCAR-8 ovarian; more than 100 µM in the experiment with RPMI-8226 leukemia; 74.2 µM in the experiment on SF-295 CNS; more than 100 µM in the experiment on NCI-H460 lung; 66.6 µM in the experiment on MALME-3M melanoma. The TGI was more than 100 µM in the experiment with KM12 colon; more than 100 µM with UACC-62 melanoma; more than 100 µM in the experiment with SW-620 colon; more than 100 µM with NCI/ADR-RES ovarian; 70 µM in the experiment with IGROV1 ovarian; more than 100 µM in the experiment with SK-OV-3 ovarian. The TGI in the experiment with LOX IMVI melanoma and in the experiment with HT29 colon was more than 100 µM each time.

Take `Cc1cc(O)c2c(c1)C(=O)C=C(Br)C2=O`: the TGI in the experiment on DU-145 prostate came to 17 µM; with MDA-MB-231 breast, 33.8 µM; with SK-MEL-28 melanoma, 29.7 µM; in the experiment with UO-31 renal, 28.9 µM; with SK-MEL-2 melanoma it was 31.2 µM; in the experiment on COLO 205 colon, 19.2 µM. Further, the TGI with UACC-257 melanoma was 26.5 µM; in the experiment with OVCAR-8 ovarian, 42.3 µM; in the experiment with RPMI-8226 leukemia, 23 µM; in the experiment with SF-295 CNS it was more than 60.5 µM; in the experiment on NCI-H460 lung, 45.9 µM; in the experiment with MALME-3M melanoma it was 17.2 µM. Besides, the TGI in the experiment on KM12 colon is more than 55.8 µM; in the experiment with UACC-62 melanoma, 32.4 µM; in the experiment with SW-620 colon, 12.2 µM; in the experiment with NCI/ADR-RES ovarian it was 43.1 µM; in the experiment on IGROV1 ovarian, more than 60.2 µM; in the experiment with SK-OV-3 ovarian it was more than 100 µM. Also, the TGI with LOX IMVI melanoma turned out to be 25.4 µM; in the experiment on HT29 colon it was 40.3 µM.

Take `O=C1CCCC(=O)N1n1c(Cc2ccc(Cl)cc2)n[nH]c1=O`: the TGI in the experiment with DU-145 prostate, in the experiment with MDA-MB-231 breast, with SK-MEL-28 melanoma, in the experiment with UO-31 renal, in the experiment with SK-MEL-2 melanoma and in the experiment on COLO 205 colon was more than 100 µM throughout. Moreover, the TGI in the experiment with UACC-257 melanoma, in the experiment on OVCAR-8 ovarian, with RPMI-8226 leukemia, in the experiment on SF-295 CNS, with NCI-H460 lung and in the experiment on MALME-3M melanoma was more than 100 µM in each case. The TGI in the experiment with KM12 colon, in the experiment on UACC-62 melanoma, in the experiment on SW-620 colon, in the experiment with NCI/ADR-RES ovarian, in the experiment with IGROV1 ovarian and in the experiment with SK-OV-3 ovarian was more than 100 µM in each case. In addition, the TGI in the experiment on LOX IMVI melanoma and with HT29 colon was more than 100 µM throughout.

Regarding `CC(C)[Si](Oc1cc2c3c(ccc2c(O)c1[C@@H](C)CO[Si](C)(C)C(C)(C)C)C(C)(C)CCC3)(C(C)C)C(C)C`, the TGI with DU-145 prostate, in the experiment on MDA-MB-231 breast, in the experiment on SK-MEL-28 melanoma, in the experiment on UO-31 renal, in the experiment with SK-MEL-2 melanoma and with COLO 205 colon was more than 100 µM each time. In addition, the TGI in the experiment on UACC-257 melanoma, in the experiment with OVCAR-8 ovarian, in the experiment on RPMI-8226 leukemia, with SF-295 CNS, in the experiment with NCI-H460 lung and in the experiment with MALME-3M melanoma was more than 100 µM throughout. Moreover, the TGI in the experiment with KM12 colon, in the experiment on UACC-62 melanoma, in the experiment on SW-620 colon, with NCI/ADR-RES ovarian, in the experiment on IGROV1 ovarian and in the experiment on SK-OV-3 ovarian was more than 100 µM throughout. The TGI in the experiment on LOX IMVI melanoma and with HT29 colon was more than 100 µM throughout.

Consider `S=C1NCCN1C(=S)NC1CCCCC1`, for which the TGI with DU-145 prostate is more than 100 µM; in the experiment with MDA-MB-231 breast, more than 100 µM; with SK-MEL-28 melanoma, more than 100 µM; with UO-31 renal, 81.6 µM; in the experiment on SK-MEL-2 melanoma, 96 µM; in the experiment on COLO 205 colon, 59.2 µM. Moreover, the TGI in the experiment on UACC-257 melanoma was 63.3 µM; with OVCAR-8 ovarian it was more than 100 µM; in the experiment on RPMI-8226 leukemia it was more than 100 µM; in the experiment on SF-295 CNS it was more than 100 µM; with NCI-H460 lung it was 48 µM; in the experiment on MALME-3M melanoma it was 64.9 µM. Besides, the TGI is 65.3 µM in the experiment on KM12 colon; 96.5 µM in the experiment with UACC-62 melanoma; more than 100 µM in the experiment on SW-620 colon; more than 100 µM in the experiment with NCI/ADR-RES ovarian; more than 100 µM in the experiment with IGROV1 ovarian; more than 100 µM with SK-OV-3 ovarian. Moreover, the TGI with LOX IMVI melanoma is more than 100 µM; in the experiment with HT29 colon, 57.2 µM.

`COc1ccc(/C=N/NS(=O)(=O)c2ccc(/C=C3\NC(=O)N(C)C3=O)cc2)cc1`: the TGI in the experiment with DU-145 prostate, with MDA-MB-231 breast, in the experiment with SK-MEL-28 melanoma, in the experiment on UO-31 renal, in the experiment on SK-MEL-2 melanoma and in the experiment with COLO 205 colon was more than 100 µM throughout. The TGI with UACC-257 melanoma, in the experiment with OVCAR-8 ovarian, in the experiment on RPMI-8226 leukemia, in the experiment with SF-295 CNS, in the experiment with NCI-H460 lung and with MALME-3M melanoma was more than 100 µM in each case. For the same molecule, the TGI in the experiment on KM12 colon, in the experiment with UACC-62 melanoma, in the experiment with SW-620 colon, with NCI/ADR-RES ovarian, in the experiment on IGROV1 ovarian and with SK-OV-3 ovarian was more than 100 µM throughout. The TGI with LOX IMVI melanoma and with HT29 colon was more than 100 µM in each case.
